Results as given in US20170172994A1, “COMPOSITIONS AND METHODS FOR TREATING BACTERIAL INFECTIONS” (WOCKHARDT LIMITED, priority 2013, published 2017).
Like-named read-outs stand apart in the source and are kept apart here.

Legend:
[1] = test system: E. coli ATCC 25922; experiment: Time kill study (viability count); format: cell-based; conditions: for Bacterial count: Compound of Formula (III) 2 μg/ml, alone or combined; for Bactericidal action (in words): E. coli ATCC 25922, standalone or combination, Tables 3 to 5
Method: (§1) The antibacterial effectiveness of various antibacterial agents in presence of a compound of Formula (III) was investigated and the results are detailed below. In a typical study, overnight cultures in Trypticase soya broth (TSB) were brought to log phase by 1 in 10 dilution in fresh cation adjusted Mueller Hinton Broth (MHB) and incubation for 2.5 hours at 35° C. in orbital shaker. Log phase cultures were diluted to desired inoculums in flasks with MHB, containing various drug concentrations. Flasks were incubated at 35° C. in orbital shaker with rotational speed of 125 rpm. Viability count was determined by 1 in 10 serial dilutions of samples in normal saline and surface spreading of 10 μl of dilutions in duplicate on Trypticase soya agar plates. Plates were incubated for 24 hours at 35° C. and colonies were enumerated to determine the colony forming units (CFU) per ml volume.

[2] = test system: E. coli ATCC 25922; experiment: Microbiological drug diffusion assay, standalone compounds in absence of beta-lactamase enzymes; format: cell-based; conditions: Escherichia coli, ATCC25922, 40 μg/ml, no beta-lactamase, read-out: Inhibition zone diameter
Method: Next, the beta-lactamase stability of some of these compounds was evaluated. In a typical stability study, ESBL enzymes from K. pneumoniae S48 producing Metalo betalactamase (NDM4) and Class A (CTX-M, SHV, TEM) beta-lactamase were isolated from freshly grown culture by 5 repetitive cycles of freeze and thaw in liquid nitrogen. […] After the stipulated incubation duration, the test compounds were extracted from the reaction mixture by the addition of 0.5 ml of Acetonitrile in 1:1 ratio (final concentration of test compound—40 μg/ml) and centrifuged at 12000 rpm for 2 min to separate precipitated protein. The activity of test compounds was measured from the supernatant by performing microbiological drug diffusion assay. For drug diffusion assay, Muller-Hinton Agar (MHA) seeded with E. coli ATCC 25922 was poured on to a bioassay plate placed on a flat surface and allowed to solidify. Appropriate concentration of the standalone and enzyme treated test compound dilutions were added to 6 mm wells cut with the help of a borer. The antibacterial activity of the test compounds was measured in terms of zones of inhibition appearing after 18-24 hours of incubation at 37° C. Measurement of diameter of zone of inhibition was undertaken to the nearest whole value with the help of ruler.

[3] = test system: Acinetobacter baumannii NCTC 13304 producing carbapenem hydrolyzing Class D OXA enzyme (OXA 27); experiment: Time kill study (viability count); format: cell-based; conditions: Cefepime 8 μg/ml, Compound of Formula (III) 8 μg/ml, Imipenem 16 μg/ml
Method: as §1

[4] = test system: Pseudomonas aeruginosa NCTC 13437 producing carbapenem hydrolyzing MBL (VIM 10) & Class A (VEB1); experiment: Time kill study (viability count); format: cell-based; conditions: Cefepime 8 μg/ml, Compound of Formula (III) 8 μg/ml, Imipenem 16 μg/ml
Method: as §1

[5] = test system: K. pneumonia S48 expressing multiple ESBLs including MBL (NDM4) and Class A (CTX-M, SHV, TEM); format: cell-based, K. pneumoniae; conditions: Cefepime 8 μg/ml, Compound of Formula (III) 2 μg/ml, Clavulanic acid 2 μg/ml, Mecillinam 2 μg/ml, Imipenem 8 μg/ml
Method: Log phase cultures were diluted to desired inoculums in flasks with MHB, containing various drug concentrations. Flasks were incubated at 35° C. in orbital shaker with rotational speed of 125 rpm. […] Plates were incubated for 24 hours at 35° C. and colonies were enumerated to determine the colony forming units (CFU) per ml volume.

[6] = test system: MDR Klebsiella pneumoniae B 88 producing NDM, SHV & TEM beta-lactamases; experiment: Time kill study at MFC and MSC; format: cell-based; conditions: Cefepime 8 mcg/ml (MFC), Compound of Formula (III) 0.12 mcg/ml (MSC), Imepenem 8 mcg/ml
Method: (§2) The synergistic killing effect of the combinations according to invention was studied by performing time kill studies. In a typical time kill study, the freshly grown cultures were diluted to the required cell density (initial starting inoculum) in Cation adjusted Muller Hinton broth medium (BD, USA). The antibacterial agents (either alone or in combination) at the required concentrations were added into the culture-containing medium. The samples were incubated under shaking condition (120 rpm) at 37° C. Enumeration of viable bacterial count was done every 2 hour by diluting in normal saline and plating on to the Tryptic Soya Agar plates (BD, USA). The plates were incubated for 24 hours to arrive at the viable bacterial count. The results are expressed in terms of Log CFU per ml. In general, the decrease of 1 Log CFU/ml, corresponds to 90% killing of bacteria. Similarly, 2 Log CFU/ml reductions indicates to 99% killing of bacteria and 3 Log CFU/ml reductions is equal to 99.9% killing of bacteria.

[7] = test system: MDR P. mirabilis G 186 producing NDM & TEM β-lactamases; experiment: Time kill study at MFC and MSC; format: cell-based; conditions: Cefepime 8 mcg/ml (MFC), Compound of Formula (III) 0.25 mcg/ml (MSC), Imepenem 8 mcg/ml
Method: as §2

[8] = test system: P. aeruginosa PAO1; experiment: Time kill study (viability count); format: cell-based; conditions: for Bacterial count: Compound of Formula (III) 4 μg/ml, alone or combined; for Bactericidal action (in words): P. aeruginosa PAO1, standalone or combination, Tables 6 and 7
Method: as §1

CO[C@@]1(NC(=O)Cc2cccs2)C(=O)N2C(C(=O)O)=C(COC(N)=O)CS[C@@H]21 [Cefoxitin]
Bacterial count ([1]; 0 hour, Cefoxitin 1 μg/ml): 7.47 log (CFU/ml)
Bacterial count ([1]; 2 hours, Cefoxitin 1 μg/ml): 7.11 log (CFU/ml)
Bacterial count ([1]; 4 hours, Cefoxitin 1 μg/ml): 6.7 log (CFU/ml)
Bacterial count ([1]; 6 hours, Cefoxitin 1 μg/ml): 6.54 log (CFU/ml)
Bacterial count ([1]; 24 hours, Cefoxitin 1 μg/ml): 9 log (CFU/ml)
Bactericidal action (in words) [1]: did not exhibit any significant bactericidal action

C[C@@H](O)[C@H]1C(=O)N2C(C(=O)O)=C(SCCN=CN)C[C@H]12 [Imipenem]
zone of inhibition at 40 µg/mL ([2]; 0 hour): 22 mm
zone of inhibition at 40 µg/mL ([2]; 1 hour): 22 mm
zone of inhibition at 40 µg/mL ([2]; 2 hours): 22 mm
zone of inhibition at 40 µg/mL ([2]; 24 hours): 22 mm
Bacterial count ([3]; 0 hour): 6.3 log (CFU/ml)
Bacterial count ([3]; 2 hours): 7.2 log (CFU/ml)
Bacterial count ([3]; 4 hours): 7.9 log (CFU/ml)
Bacterial count ([3]; 6 hours): 7.9 log (CFU/ml)
Bacterial count ([3]; 8 hours): 8 log (CFU/ml)
Bacterial count ([4]; 0 hour): 6.0 log (CFU/ml)
Bacterial count ([4]; 2 hours): 7.2 log (CFU/ml)
Bacterial count ([4]; 4 hours): 7.9 log (CFU/ml)
Bacterial count ([4]; 6 hours): 7.9 log (CFU/ml)
Bacterial count ([4]; 12 hours): 8.3 log (CFU/ml)
Bacterial count ([5]; 0 hour): 5.5 log (CFU/ml)
Bacterial count ([5]; 2 hours): 3.0 log (CFU/ml)
Bacterial count ([5]; 4 hours): 3.0 log (CFU/ml)
Bacterial count ([5]; 6 hours): 4.0 log (CFU/ml)
Bacterial count ([5]; 24 hours): 8.69 log (CFU/ml)
Bacterial count ([6]; 0 hour): 6.14 Log10 CFU/ml
Bacterial count ([6]; 2 hours): 8.65 Log10 CFU/ml
Bacterial count ([6]; 4 hours): 8.7 Log10 CFU/ml
Bacterial count ([6]; 6 hours): 8.74 Log10 CFU/ml
Bacterial count ([6]; 8 hours): 8.78 Log10 CFU/ml
Bacterial count ([7]; 0 hour): 6.58 Log10 CFU/ml
Bacterial count ([7]; 2 hours): 7.2 Log10 CFU/ml
Bacterial count ([7]; 4 hours): 9.45 Log10 CFU/ml
Bacterial count ([7]; 6 hours): 8.65 Log10 CFU/ml
Bacterial count ([7]; 8 hours): 8.85 Log10 CFU/ml

NC(=O)c1cc[n+](CC2=C(C(=O)O)N3C(=O)[C@@H](NC(=O)[C@@H](c4ccccc4)S(=O)(=O)[O-])[C@H]3SC2)cc1 [Cefsulodin]
Bacterial count ([1]; 0 hour, Cefsulodin 16 μg/ml): 7.47 log (CFU/ml)
Bacterial count ([1]; 2 hours, Cefsulodin 16 μg/ml): 8.4 log (CFU/ml)
Bacterial count ([1]; 4 hours, Cefsulodin 16 μg/ml): 8.8 log (CFU/ml)
Bacterial count ([1]; 6 hours, Cefsulodin 16 μg/ml): 8.3 log (CFU/ml)
Bacterial count ([1]; 24 hours, Cefsulodin 16 μg/ml): 9 log (CFU/ml)
Bactericidal action (in words) [1]: did not exhibit any bactericidal action
Bacterial count ([8]; 0 hour, Cefsulodin 2 μg/ml): 6.81 log (CFU/ml)
Bacterial count ([8]; 2 hours, Cefsulodin 2 μg/ml): 6.48 log (CFU/ml)
Bacterial count ([8]; 4 hours, Cefsulodin 2 μg/ml): 5.07 log (CFU/ml)
Bacterial count ([8]; 6 hours, Cefsulodin 2 μg/ml): 4.74 log (CFU/ml)
Bacterial count ([8]; 24 hours, Cefsulodin 2 μg/ml): 9 log (CFU/ml)
Bactericidal action (in words) [8]: failed to cause consistent killing till 24 hour

C[C@H]1[C@H](NC(=O)/C(=N\OC(C)(C)C(=O)O)c2csc(N)n2)C(=O)N1S(=O)(=O)O [Aztreonam]
Bacterial count ([1]; 0 hour, Aztreonam 1 μg/ml): 7.47 log (CFU/ml)
Bacterial count ([1]; 2 hours, Aztreonam 1 μg/ml): 7.48 log (CFU/ml)
Bacterial count ([1]; 4 hours, Aztreonam 1 μg/ml): 7.47 log (CFU/ml)
Bacterial count ([1]; 6 hours, Aztreonam 1 μg/ml): 7.48 log (CFU/ml)
Bacterial count ([1]; 24 hours, Aztreonam 1 μg/ml): 7.5 log (CFU/ml)
Bactericidal action (in words) [1]: did not exhibit any bactericidal action
Bacterial count ([8]; 0 hour, Aztreonam 2 μg/ml): 5.74 log (CFU/ml)
Bacterial count ([8]; 2 hours, Aztreonam 2 μg/ml): 6.3 log (CFU/ml)
Bacterial count ([8]; 4 hours, Aztreonam 2 μg/ml): 6.65 log (CFU/ml)
Bacterial count ([8]; 6 hours, Aztreonam 2 μg/ml): 6.54 log (CFU/ml)
Bacterial count ([8]; 24 hours, Aztreonam 2 μg/ml): 7.15 log (CFU/ml)
Bactericidal action (in words) [8]: did not exhibit any bactericidal action
